# Laboratory results reported in patent US20230295162A1 (EÖTVÖS LORÁND TUDOMÁNYEGYETEM, priority 2020, published 2023).
# Assays:
# [1] = system: EBC-1 lung cancer cell line; assay: High-throughput screening, CellTiter-Glo cell viability assay at 100 nM; format: cell-based, human; conditions: Homo sapiens, EBC-1, HTS, compounds at 100 nM, 72 h, read-out: cytotoxicity expressed in IC50, EBC-1 (results of High throughput screening)
# Experimental: (§1) EBC-1 (obtained from JRCB, https://cellbank.nibiohn.go.jp/english/) and H2228 (obtained from ATCC https://www.lgcstandards-atcc.org/) cell lines were maintained according to the instructions provided by JRCB and ATCC in a 5% CO2 humidified incubator maintained at 37° C. temperature. Effect of compounds on cell viability was measured via CellTiter-Glo® luminescent cell viability assay (Promega, Madison, WI, USA). Cells were plated at 1000 cells/well onto a flat-bottomed, white 96 well plate (BRANDplates, cat. no.: 781965). After 24 h, cells were treated for 72 h with the compounds at 100 nM concentration. After the treatment, medium was removed and CellTiter-Glo® reagent was added. Untreated cells were used as control. The luminescence signal was recorded using a microplate reader (BioTek Synergy 2 Multi-Mode Reader, BioTek, Winooski, VT, USA). Cell viability data (% of untreated control cells) was evaluated with Microsoft Excel.
# [2] = system: H2228 lung cancer cell line; assay: as above; format: cell-based, human; conditions: Homo sapiens, NCI-H2228, HTS, compounds at 100 nM, 72 h, read-out: cytotoxicity expressed in IC50, H2228 (results of High throughput screening)
# Experimental: as §1
# [3] = system: PANC-1 (human pancreatic carcinoma) cells; assay: Impedance-based viability assay (xCELLigence SP), long treatment; format: cell-based; conditions: 72 h, read-out: cytotoxicity expressed in IC50, PANC-1
# From the text: (Gibco®/Invitrogen Corporation, New York, NY, USA).
# Data obtained from each experiment represent mathematical averages.
SMILES,IC50 [1],IC50 [2],IC50 [3]
"O=C1C2=C(CCN(Cc3cccc(F)c3)C2)N2CCN=C2N1Cc1ccc(Br)cc1 [I/4, reference compound]",< 100 nM,< 100 nM,
Cc1ccccc1CN1C(=O)C2=C(CCN(Cc3ccc(F)cc3C(F)(F)F)C2)N2CCN=C12 [I/12],> 100 nM,> 100 nM,
Cc1ccccc1CN1C(=O)C2=C(CCN(Cc3cccc(C(F)(F)F)c3)C2)N2CCN=C12 [I/13],> 100 nM,> 100 nM,
Cc1ccccc1CN1C(=O)C2=C(CCN(Cc3ccc(F)c(F)c3)C2)N2CCN=C12 [I/14],> 100 nM,> 100 nM,
O=C1C2=C(CCN(Cc3cccc(C(F)(F)F)c3)C2)N2CCN=C2N1Cc1ccc(I)cc1 [I/15A],> 100 nM,> 100 nM,
Cc1ccccc1CN1C(=O)C2=C(CCN(Cc3cc(C(F)(F)F)cc(C(F)(F)F)c3)C2)N2CCN=C12 [I/15],> 100 nM,> 100 nM,
O=C1C2=C(CCN(Cc3cc(C(F)(F)F)cc(C(F)(F)F)c3)C2)N2CCN=C2N1Cc1ccc(I)cc1 [I/16],> 100 nM,> 100 nM,
O=C1C2=C(CCN(Cc3ccc(F)c(F)c3)C2)N2CCN=C2N1Cc1ccc(I)cc1 [I/17],> 100 nM,> 100 nM,
O=C1C2=C(CCN(Cc3ccc(F)c(F)c3F)C2)N2CCN=C2N1Cc1ccc(I)cc1 [I/18],> 100 nM,> 100 nM,
O=C1C2=C(CCN(Cc3cc(F)c(F)c(F)c3)C2)N2CCN=C2N1Cc1ccc(I)cc1 [I/19],> 100 nM,> 100 nM,
O=C1C2=C(CCN(Cc3cc(C(F)(F)F)cc(C(F)(F)F)c3)C2)N2CCN=C2N1Cc1ccc(C(F)(F)F)cc1 [I/21],> 100 nM,> 100 nM,
O=C1C2=C(CCN(Cc3cc(C(F)(F)F)cc(C(F)(F)F)c3)C2)N2CCN=C2N1Cc1ccc(C(F)(F)F)c(F)c1 [I/22],> 100 nM,> 100 nM,
O=C1C2=C(CCN(Cc3ccc(F)c(F)c3)C2)N2CCN=C2N1Cc1ccc(F)cc1 [I/23],> 100 nM,> 100 nM,
O=C1C2=C(CCN(Cc3cc(C(F)(F)F)cc(C(F)(F)F)c3)C2)N2CCN=C2N1Cc1ccc(F)cc1 [I/24],> 100 nM,> 100 nM,
O=C1C2=C(CCN(Cc3cc(F)c(F)c(F)c3)C2)N2CCN=C2N1Cc1ccc(F)cc1 [I/25],> 100 nM,> 100 nM,
O=C1C2=C(CCN(Cc3cccc(C(F)(F)F)c3)C2)N2CCN=C2N1Cc1ccc(F)cc1 [I/32],> 100 nM,> 100 nM,
O=C1C2=C(CCN(Cc3cccc(C(F)(F)F)c3)C2)N2CCN=C2N1Cc1ccc(C(F)(F)F)c(F)c1 [I/33],> 100 nM,> 100 nM,
O=C1C2=C(CCN(Cc3ccc(F)c(F)c3F)C2)N2CCN=C2N1Cc1ccc(F)cc1 [I/34],> 100 nM,> 100 nM,
O=C1C2=C(CCN(Cc3cc(F)cc(F)c3)C2)N2CCN=C2N1Cc1ccc(I)cc1 [I/38],< 100 nM,< 100 nM,
O=C1C2=C(CCN(Cc3ccccc3)C2)N2CCN=C2N1Cc1ccc(Br)cc1 [I/41],> 100 nM,< 100 nM,
O=C1C2=C(CCN(Cc3cccc(F)c3)C2)N2CCN=C2N1Cc1ccc([N+](=O)[O-])cc1F [I/49],< 100 nM,< 100 nM,

SMILES,IC50 [1],IC50 [2],IC50 [3]
O=C1C2=C(CCN(Cc3cc(F)cc(F)c3)C2)N2CCN=C2N1Cc1ccc([N+](=O)[O-])cc1F [I/50],< 100 nM,< 100 nM,
COc1cc(CN2C(=O)C3=C(CCN(Cc4ccccc4)C3)N3CCN=C23)cc(OC)c1OC [I/51],> 100 nM,> 100 nM,
O=C1C2=C(CCN(Cc3ccccc3)C2)N2CCN=C2N1Cc1cccc(I)c1 [I/56],> 100 nM,> 100 nM,
COc1cc(CN2C(=O)C3=C(CCN(Cc4cccc(F)c4)C3)N3CCN=C23)cc(OC)c1OC [I/57],> 100 nM,> 100 nM,
NCc1ccc(CN2C(=O)C3=C(CCN(Cc4ccccc4)C3)N3CCN=C23)cc1 [I/62],> 100 nM,> 100 nM,
NCc1cccc(CN2CCC3=C(C2)C(=O)N(Cc2ccc(C(F)(F)F)cc2)C2=NCCN23)c1 [I/69],> 100 nM,> 100 nM,
Cc1ccccc1CN1C(=O)C2=C(CCN(Cc3ccc(N)cc3)C2)N2CCN=C12 [I/74],> 100 nM,> 100 nM,
Nc1cccc(CN2C(=O)C3=C(CCN(Cc4cccc(F)c4)C3)N3CCN=C23)c1 [I/76],> 100 nM,> 100 nM,
Cc1ccccc1CN1C(=O)C2=C(CCN(Cc3cccc(N)c3)C2)N2CCN=C12 [I/77],> 100 nM,> 100 nM,
Nc1cccc(CN2CCC3=C(C2)C(=O)N(Cc2ccc(I)cc2)C2=NCCN23)c1 [I/78],> 100 nM,> 100 nM,
Nc1cccc(CN2CCC3=C(C2)C(=O)N(Cc2ccc(C(F)(F)F)cc2)C2=NCCN23)c1 [I/79],> 100 nM,> 100 nM,
Nc1cccc(CN2CCC3=C(C2)C(=O)N(Cc2ccc(C(F)(F)F)c(F)c2)C2=NCCN23)c1 [I/80],> 100 nM,> 100 nM,
Nc1ccc(CN2CCC3=C(C2)C(=O)N(Cc2ccc(C(F)(F)F)c(F)c2)C2=NCCN23)cc1 [I/82],> 100 nM,> 100 nM,
Nc1ccc(CN2CCC3=C(C2)C(=O)N(Cc2cccc(F)c2)C2=NCCN23)cc1 [I/83],> 100 nM,> 100 nM,
Nc1ccc(CN2CCC3=C(C2)C(=O)N(Cc2ccc(N)cc2)C2=NCCN23)cc1 [I/85],> 100 nM,> 100 nM,
Nc1ccc(CN2C(=O)C3=C(CCN(Cc4cc(F)cc(F)c4)C3)N3CCN=C23)cc1 [I/88],> 100 nM,> 100 nM,
O=C1C2=C(CCN(Cc3ccccc3)C2)N2CCN=C2N1CC1CNC1 [I/90],> 100 nM,> 100 nM,
Nc1ccc(CN2CCC3=C(C2)C(=O)N(CC2CNC2)C2=NCCN23)cc1 [I/91],> 100 nM,> 100 nM,
Cc1ccccc1CN1C(=O)C2=C(CCN(CC3CNC3)C2)N2CCN=C12 [I/92],> 100 nM,> 100 nM,
Nc1ccc(CN2CCC3=C(C2)C(=O)N(CC2CCNCC2)C2=NCCN23)cc1 [I/93],> 100 nM,> 100 nM,
Cc1ccccc1CN1C(=O)C2=C(CCN(CC3CCNCC3)C2)N2CCN=C12 [I/94],> 100 nM,> 100 nM,

SMILES,IC50 [1],IC50 [2],IC50 [3]
O=C1C2=C(CCN(CC3CCNCC3)C2)N2CCN=C2N1Cc1ccc(F)cc1 [I/95],> 100 nM,> 100 nM,
O=C1C2=C(CCN(Cc3ccccc3)C2)N2CCN=C2N1CC1CCNCC1 [I/96],> 100 nM,> 100 nM,
Cc1ccccc1CN1C(=O)C2=C(CCN(CC3CCNC3)C2)N2CCN=C12 (stereo not shown) [I/97],> 100 nM,> 100 nM,
O=C1C2=C(CCN(CC3CCNC3)C2)N2CCN=C2N1Cc1ccc(F)cc1 (stereo not shown) [I/98],> 100 nM,> 100 nM,
Cc1ccccc1CN1C(=O)C2=C(CCN(CC3CCCN3)C2)N2CCN=C12 (stereo not shown) [I/99],> 100 nM,> 100 nM,
O=C1C2=C(CCN(CC3CCCN3)C2)N2CCN=C2N1Cc1ccc(F)cc1 (stereo not shown) [I/100],> 100 nM,> 100 nM,
[N-]=[N+]=Nc1cccc(CN2C(=O)C3=C(CCN(Cc4ccccc4)C3)N3CCN=C23)c1 [I/102],> 100 nM,> 100 nM,
[N-]=[N+]=Nc1cccc(CN2C(=O)C3=C(CCN(Cc4cccc(F)c4)C3)N3CCN=C23)c1 [I/105],< 100 nM,~100 nM,
[N-]=[N+]=Nc1ccc(CN2C(=O)C3=C(CCN(Cc4cccc(F)c4)C3)N3CCN=C23)cc1 [I/106],~100 nM,> 100 nM,
[N-]=[N+]=Nc1ccc(CN2CCC3=C(C2)C(=O)N(Cc2cccc(F)c2)C2=NCCN23)cc1 [I/108],> 100 nM,> 100 nM,
[N-]=[N+]=Nc1ccc(CN2CCC3=C(C2)C(=O)N(Cc2ccc(F)cc2)C2=NCCN23)cc1 [I/109],,,8.9 µM
[N-]=[N+]=Nc1ccc(CN2CCC3=C(C2)C(=O)N(Cc2ccc(C(F)(F)F)cc2)C2=NCCN23)cc1 [I/110],> 100 nM,> 100 nM,
[N-]=[N+]=Nc1ccc(CN2CCC3=C(C2)C(=O)N(Cc2ccc(C(F)(F)F)c(F)c2)C2=NCCN23)cc1 [I/114],> 100 nM,> 100 nM,
COc1cc(CN2C(=O)C3=C(CCN(Cc4ccc(N=[N+]=[N-])cc4)C3)N3CCN=C23)cc(OC)c1OC [I/116],> 100 nM,> 100 nM,
[N-]=[N+]=Nc1ccc(CN2CCC3=C(C2)C(=O)N(Cc2ccc(N=[N+]=[N-])cc2)C2=NCCN23)cc1 [I/117],> 100 nM,> 100 nM,
[N-]=[N+]=Nc1ccc(CN2CCC3=C(C2)C(=O)N(CC2CNC2)C2=NCCN23)cc1 [I/118],> 100 nM,> 100 nM,
[N-]=[N+]=Nc1ccc(CN2CCC3=C(C2)C(=O)N(CC2CCNCC2)C2=NCCN23)cc1 [I/119],> 100 nM,> 100 nM,
COCCOc1cc2ncnc(Nc3cccc(-c4cn(-c5ccc(CN6CCC7=C(C6)C(=O)N(Cc6ccccc6C)C6=NCCN67)cc5)nn4)c3)c2cc1OCCOC [I/122],> 100 nM,> 100 nM,
COCCOc1cc2ncnc(Nc3cccc(-c4cn(-c5ccc(CN6C(=O)C7=C(CCN(Cc8ccccc8)C7)N7CCN=C67)cc5)nn4)c3)c2cc1OCCOC [I/123],> 100 nM,> 100 nM,
